Assays:
Assay type in all cases: in vivo, rat
[1] = tested on: Alzheimer's Disease model (Aluminium Chloride induced), Wistar male rats; experiment: Morris water maze in AlCl3-induced Alzheimer's Disease model; settings: G3 (Donepezil orally)
Protocol: (§1) This compound PHY-001 (Named as MAG XXI in Animal study by CEFTE) has also been subjected to in-vivo animal study at the animal study facility attached to SRMC (Sri Ramachandra Medical College) Hospital, Chennai. In this study, the therapeutic efficacy of this compound was evaluated against Alzheimer's Disease model, by inducing Alzheimer's like pathology by intra peritoneal administration of Aluminium Chloride (Established animal model for studying Alzheimer's disease and efficacy evaluation of a therapeutic intervention).
(§2) Based on the pilot study observations, a main study was conducted. Totally 30 Wistar male rats were used for the study. Animals were formed into five groups, Group 1-rats served as a control group, animals in group 2 to 5 were injected with AlCl3 intra-peritoneally once daily for four weeks.
The results of number of times crossed centre at Morris water maze and escape latency which is the […] the animal could find the platform and escape (in 3 minutes), are presented in table 1 & table 2.

[2] = tested on: Alzheimer's Disease model (Aluminium Chloride induced), Wistar male rats; experiment: Passive avoidance test in AlCl3-induced Alzheimer's Disease model; settings: G3 (Donepezil orally)
Protocol: as §1, §2
Significant alteration in dark compartment movement at all weeks is noticed in G2 group when compared to G1 which elucidate the learning memory defect.

[3] = tested on: Alzheimer's Disease model (Aluminium Chloride induced), Wistar male rats; experiment: Elevated plus maze in AlCl3-induced Alzheimer's Disease model; settings: G3 (Donepezil orally); for Elevated plus maze: No. of DF (defacation) / Elevated plus maze: No. of UP (urine pool): Latency period 3 minutes
Protocol: as §1, §2

## COc1cc2c(cc1OC)C(=O)C(CC1CCN(Cc3ccccc3)CC1)C2 (stereo not shown) [Donepezil]
[1]
  times crossed centre and escape latency when compared to G2: significant elevation
[1]; WK 1
  Escape latency (in 3 minutes): No. of times find platform and escape: 3.33
  Morris water maze: No. of times crossed center in 1 minute (mean values): 2.5
[1]; WK 2
  Escape latency (in 3 minutes): No. of times find platform and escape: 2.67
  Morris water maze: No. of times crossed center in 1 minute (mean values): 2.67
[1]; WK 3
  Escape latency (in 3 minutes): No. of times find platform and escape: 3.33
  Morris water maze: No. of times crossed center in 1 minute (mean values): 2.83
[1]; WK 4
  Escape latency (in 3 minutes): No. of times find platform and escape: 3.5
  Morris water maze: No. of times crossed center in 1 minute (mean values): 3.33
[2]
  dark compartment movement when compared to G2: significant reversal
[2]; WK 1
  Passive avoidance: latency to enter dark chamber (mean values): 31.83 s
[2]; WK 2
  Passive avoidance: latency to enter dark chamber (mean values): 42 s
[2]; WK 3
  Passive avoidance: latency to enter dark chamber (mean values): 45.33 s
[2]; WK 4
  Passive avoidance: latency to enter dark chamber (mean values): 47 s
[3]; WK 1
  Elevated plus maze: No. of DF (defacation): 1
  Elevated plus maze: No. of UP (urine pool): 0.5
  Elevated plus maze: No. of entries in Closed arm: 3.5
  Elevated plus maze: No. of entries in Open arm: 0.33
[3]; WK2
  Elevated plus maze: No. of DF (defacation): 0.5
  Elevated plus maze: No. of UP (urine pool): 0.17
[3]; WK 3
  Elevated plus maze: No. of DF (defacation): 1.17
  Elevated plus maze: No. of UP (urine pool): 1.33
  Elevated plus maze: No. of entries in Closed arm: 2.5
  Elevated plus maze: No. of entries in Open arm: 0
[3]; WK 4
  Elevated plus maze: No. of DF (defacation): 0.83
  Elevated plus maze: No. of UP (urine pool): 1.17
  Elevated plus maze: No. of entries in Closed arm: 2.67
  Elevated plus maze: No. of entries in Open arm: 1.67
[3]; WK 2
  Elevated plus maze: No. of entries in Closed arm: 4.17
  Elevated plus maze: No. of entries in Open arm: 0.33
[3]; week 4
  number of entries in open arm and closed arm when compared to G2: significant elevation

Source: patent publication US20250134809A1, “A PHYTOACTIVE ENCAPSULATED FORMULATION FOR NEURODEGENERATIVE DISEASES” (Gidaa Life Sciences Pvt. Ltd., priority 2022, published 2025)
